Experimental data from BindingDB's records for doi:10.1016/j.bmc.2007.06.041 (Seoul National University, 2007).

Biological target: Transient receptor potential cation channel subfamily V member 1 (Rattus norvegicus, UniProt O35433)
Experiment: Competition Binding Assay and Inhibition of Ca2+ Uptake Assay
Conditions: pH 7.4; 37 °C
Description: Binding assay mixtures were set up and contained [3H] RTX, various concentrations of competing ligands, and rVR1-transfected CHO cells. Nonspecific binding was determined in the presence of 100 nM nonradioactive RTX. After the binding reaction, membrane-bound RTX was separated from the free by centrifugation, and the radioactivity was determined by scintillation counting. Equilibrium binding parameters (Ki, Bmax, and cooperativity) were determined by fitting the Hill equation to the measured values with the aid of the program Origin 6.0.

Chain of Transient receptor potential cation channel subfamily V member 1 (O35433 whole entry): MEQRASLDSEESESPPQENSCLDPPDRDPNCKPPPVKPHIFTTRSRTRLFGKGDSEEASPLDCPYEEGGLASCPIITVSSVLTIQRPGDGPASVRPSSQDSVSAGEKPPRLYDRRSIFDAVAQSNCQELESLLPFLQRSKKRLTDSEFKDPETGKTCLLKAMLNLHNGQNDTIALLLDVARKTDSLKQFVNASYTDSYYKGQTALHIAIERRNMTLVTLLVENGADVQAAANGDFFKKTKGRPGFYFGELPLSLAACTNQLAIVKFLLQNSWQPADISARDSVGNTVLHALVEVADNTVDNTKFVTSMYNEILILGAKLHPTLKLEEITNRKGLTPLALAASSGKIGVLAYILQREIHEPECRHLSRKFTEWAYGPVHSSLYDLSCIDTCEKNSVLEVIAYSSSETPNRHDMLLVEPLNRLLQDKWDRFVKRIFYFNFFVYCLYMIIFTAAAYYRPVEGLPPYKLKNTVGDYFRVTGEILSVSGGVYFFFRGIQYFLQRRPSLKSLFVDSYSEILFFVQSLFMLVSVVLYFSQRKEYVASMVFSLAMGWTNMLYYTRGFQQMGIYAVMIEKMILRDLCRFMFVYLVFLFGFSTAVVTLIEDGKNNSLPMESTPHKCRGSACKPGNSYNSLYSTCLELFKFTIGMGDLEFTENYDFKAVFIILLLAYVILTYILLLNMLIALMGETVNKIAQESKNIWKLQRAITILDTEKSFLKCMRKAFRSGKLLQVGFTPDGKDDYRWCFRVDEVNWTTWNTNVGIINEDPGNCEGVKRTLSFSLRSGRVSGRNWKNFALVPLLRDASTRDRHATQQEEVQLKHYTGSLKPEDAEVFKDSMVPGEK

Row | Compound | Ki [nM]
1 | CC(C)(C)c1ccc(CNC(=S)NC(c2ccccc2)c2ccc(NS(C)(=O)=O)c(F)c2)cc1 (configuration not stated) [3-[(4-tert-butylphenyl)methyl]-1-[(3-fluoro-4-methanesulfonamidophenyl)(phenyl)methyl]thiourea] | 860
2 | C[C@@H](NC(=S)NCc1ccc(C(C)(C)C)cc1)c1ccc(NS(C)(=O)=O)cc1 [3-[(4-tert-butylphenyl)methyl]-1-[(1R)-1-(4-methanesulfonamidophenyl)ethyl]thiourea] | 4.5
3 | CC(NC(=S)NCc1ccc(C(C)(C)C)cc1)c1ccc(NS(C)(=O)=O)c(F)c1 (configuration not stated) [3-[(4-tert-butylphenyl)methyl]-1-[1-(3-fluoro-4-methanesulfonamidophenyl)ethyl]thiourea] | 9.2
4 | C[C@@H](NC(=S)NCc1ccc(C(C)(C)C)cc1)c1ccc(NS(C)(=O)=O)c(F)c1 [3-[(4-tert-butylphenyl)methyl]-1-[(1R)-1-(3-fluoro-4-methanesulfonamidophenyl)ethyl]thiourea] | 37
5 | COc1cc(C2(NC(=S)NCc3ccc(C(C)(C)C)cc3)CC2)ccc1NS(C)(=O)=O [1-[(4-tert-butylphenyl)methyl]-3-[1-(4-methanesulfonamido-3-methoxyphenyl)cyclopropyl]thiourea] | 243
6 | CC(NC(=S)NCc1ccc(C(C)(C)C)cc1)c1ccc(NS(C)(=O)=O)cc1 (configuration not stated) [3-[(4-tert-butylphenyl)methyl]-1-[1-(4-methanesulfonamidophenyl)ethyl]thiourea] | 14.7
7 | CC(C)(C)c1ccc(CNC(=S)NC(Cc2ccccc2)c2ccc(NS(C)(=O)=O)c(F)c2)cc1 (configuration not stated) [3-[(4-tert-butylphenyl)methyl]-1-[1-(3-fluoro-4-methanesulfonamidophenyl)-2-phenylethyl]thiourea] | 700
8 | CCC(NC(=S)NCc1ccc(C(C)(C)C)cc1)c1ccc(NS(C)(=O)=O)c(F)c1 (configuration not stated) [3-[(4-tert-butylphenyl)methyl]-1-[1-(3-fluoro-4-methanesulfonamidophenyl)propyl]thiourea] | 54
9 | CC(C)(C)c1ccc(CNC(=S)NC(C)(C)c2ccc(NS(C)(=O)=O)cc2)cc1 [3-[(4-tert-butylphenyl)methyl]-1-[2-(4-methanesulfonamidophenyl)propan-2-yl]thiourea] | 1800
10 | CC(C)(C)c1ccc(CNC(=S)NCc2ccc(NS(C)(=O)=O)c(F)c2)cc1 [JYL1421] | 9.2
11 | CC(C)(C)c1ccc(CNC(=S)NC2(c3ccc(NS(C)(=O)=O)cc3)CC2)cc1 [1-[(4-tert-butylphenyl)methyl]-3-[1-(4-methanesulfonamidophenyl)cyclopropyl]thiourea] | 60
12 | Oc1cc2c(cc1O)CN(C(=S)NCCc1ccc(Cl)cc1)CCC2 [N-[2-(4-chlorophenyl)ethyl]-7,8-dihydroxy-2,3,4,5-tetrahydro-1H-2-benzazepine-2-carbothioamide] | 520
13 | CC(C)(C)c1ccc(CNC(=S)NC(C)(C)c2ccc(NS(C)(=O)=O)c(F)c2)cc1 [3-[(4-tert-butylphenyl)methyl]-1-[2-(3-fluoro-4-methanesulfonamidophenyl)propan-2-yl]thiourea] | 980
14 | COc1cc(C(C)(C)NC(=S)NCc2ccc(C(C)(C)C)cc2)ccc1NS(C)(=O)=O [3-[(4-tert-butylphenyl)methyl]-1-[2-(4-methanesulfonamido-3-methoxyphenyl)propan-2-yl]thiourea] | 663
15 | COc1cc(C(C)NC(=S)NCc2ccc(C(C)(C)C)cc2)ccc1NS(C)(=O)=O (configuration not stated) [3-[(4-tert-butylphenyl)methyl]-1-[1-(4-methanesulfonamido-3-methoxyphenyl)ethyl]thiourea] | 28.6
16 | C[C@H](NC(=S)NCc1ccc(C(C)(C)C)cc1)c1ccc(NS(C)(=O)=O)c(F)c1 [3-[(4-tert-butylphenyl)methyl]-1-[(1S)-1-(3-fluoro-4-methanesulfonamidophenyl)ethyl]thiourea] | 2670
17 | CC(C)C(NC(=S)NCc1ccc(C(C)(C)C)cc1)c1ccc(NS(C)(=O)=O)c(F)c1 (configuration not stated) [3-[(4-tert-butylphenyl)methyl]-1-[1-(3-fluoro-4-methanesulfonamidophenyl)-2-methylpropyl]thiourea] | 223
